# Assay results taken from patent US6602487B1, “Methods and tests for producing and for inhibiting coronary artery vasospasms” (Dimera Incorporated, priority 1997, dated 2003).
# Entries after “also recorded” stand apart in the source; their conditions may differ.
# How the values were obtained:
# coronary arteries [1] = assay: Mechanical injury coronary vasospasm protocol (Protocol 2); assay type: in vivo, rhesus monkeys (Macaca mulatta); conditions: serotonin 67 μmol/liter IC; U46619 67 nmol/liter or 1 nmol/liter; ET1 ≦10 nmol/liter; AII ≦10 μmol/liter
# Source text: A separate mechanical injury, Protocol 2, was used in three additional monkeys (one male, two ovx). The injury step of Protocol 2, was deliberate mechanical stretching of the LAD or left main coronary artery with a 5F catheter.
# In Protocol 2, steps 1-5 were the same as in Protocol 1. The remaining steps were as follows:
# 7. IC injection of angiotensin II (sequential doses to 10 μmol/liter);
# 8. Injury by stretching the coronary artery with a 5F catheter;
# 9. IC injection of serotonin (sequential doses to 1 mmol/liter);
# (§1) 10. IC injection 15 minutes later with 1 or 10 μmol/liter nitrendipine or Ro 40-5967 (mibefradil);
# 11. IC injection of […] (sequential doses to 10 μmol/liter); and
# (§2) 12. IC injection 15 minutes later with 1 or 10 μmol/liter nitrendipine or Ro 40-5967.
# Putative coronary vasospasm stimuli were judged primarily by actions on large coronary artery diameters, analyzed as diameter of the most proximal focus of vasospasm at end-diastole from video-taped images recorded at 30 frames/s. We used the image analysis program Image Pro to measure the diameters from single frames acquired with an Imagraph frame grabber in a Pentium computer. We used the 3F catheter tip radio-opaque marker ring (1.0 mm) for calibration and determined minimal and maximal diameters just distal to the constriction. All responses to interventions were also X-ray imaged immediately (15 to 30 s after injection) and at exactly 3 minutes (and 15 minutes if there was vasospasm) after injection.
# coronary arteries [2] = system: coronary arteries
# coronary arteries [3] = assay: animal or person; conditions: Macaca mulatta, read-out: EC50 (-log mol/liter) (converted)
# coronary arteries [4] = assay: Relief of coronary vasospasm by intracoronary Ca2+ antagonist; assay type: in vivo, rhesus monkeys (Macaca mulatta)
# Experimental: The eighth to tenth steps, which were 1 ml injections of 100 μmol/liter serotonin and 1 μmol/liter U46619 combined, were the critical steps. These concentrations of serotonin and U46619, injected in three repeated challenges, provoked drug-induced vasospasm. Sensitivity was determined by whether the vasospasm response occurred to the first, second or third stimulus, allowing at least a 7-minute delay from one injection to the next. For three of these seven ovx monkeys, 1-2 nM endothelin-1 (alone and plus serotonin) and 1 μmol/liter angiotensin-II (alone and plus serotonin) steps were administered between steps 10 and 11 (as additional challenges), but these extra steps never produced vasospasm. […] Step 12 was a Ca^2+ antagonist, either nitrendipine or mibefradil, as a vasodilator to relieve the vasospasm or cardiogenic shock that was the end point.
# as §1, §2
# To allow monkeys to recover and prevent death due to cardiogenic shock, we followed combined serotonin and U46619 stimulation with an IC Ca^2+ antagonist, either nitrendipine or mibefradil, at the end of the 15 minute vasospasm, except for that in FIG. 2. […] In monkeys with severe vasoconstriction and low heart rates (<90 beats/minute), Ca^2+ antagonists effected increases to 90 to 200 beats/minute due to reversal of atrioventricular […] conduction blocks (evident in the recovery of heart rate shown in Table 2).
SMILES,coronary vasospasm with mechanical injury (5F catheter stretch) (coronary arteries [1]),"Spasms/N (coronary arteries [2]; Protocol 1, number of animals with vasospasm / number of animals)","ED50 (-log mol/liter) (coronary arteries [2]; Protocol 1, syringe concentration of the named vasoconstrictor causing 50% reduction of diameter from control, combined stimuli with 100 μmol/liter serotonin)","vasoactivity / constriction of arteries on IC injection of single agent (coronary arteries [2]; serotonin 67 nmol/liter to 667 μmol/liter, U46619 6.7 to 2,000 nmol/liter)","coronary vasospasm on IC injection (no mechanical injury) (coronary arteries [2]; serotonin 6.7 or 200 μmol/liter alone, U46619 6.7 to 2,000 nmol/liter alone, AII up to 200 nmol/liter, combination 6.7 μmol/liter serotonin and 67 nmol/liter U46619, triple combination with ET1)",EC50 (coronary arteries [3]),"relief of coronary vasospasm (coronary arteries [4]; IC injection, nitrendipine 1 to 10 μmol/liter, mibefradil 0.1 to 10 μmol/liter, not allowing for dilution)","blood pressures returned to normal ranges (minimums, systolic/diastolic) (coronary arteries [4]; Mibefradil IC 0.1 to 10 μmol/liter, from diastolic levels as low as 10 to 20 mm Hg)","blood pressure after IC mibefradil (coronary arteries [4]; one MPA monkey of Example 2, nadir 38/20 mm Hg, after 15 minutes vasospasm)"
"NCCc1c[nH]c2ccc(O)cc12 [Serotonin, serotonin]",caused coronary vasospasm at multiple sites; also recorded: Vasospasm was stimulated,0/8,2.5 -log mol/liter,vasoactive in all animals,vasospasm could not be found,0.000158 mol/L,–,–,–
COCC(=O)O[C@]1(CCN(C)CCCc2nc3ccccc3[nH]2)CCc2cc(F)ccc2[C@@H]1C(C)C [mibefradil],–,–,–,–,–,–,immediately effective in relieving vasospasm,100/60,124/84
